Laboratory results taken from EP0376518B1, “Phospholipid nucleosides” (ELI LILLY AND COMPANY, priority 1988, dated 1990).

How the values were obtained:
Type in all cases: in vivo
Madison lung carcinoma = test: Test 8: Madison lung carcinoma in mice; conditions: for Toxicity (number of animals which exhibited signs of toxicity): group of 10 mice; for Inhibition (percent inhibition of tumor growth): tumors measured day 11
Text: (§1) Representative compounds of the invention have been tested using murine tumors in female mice to determine their antineoplastic efficacy. Several different tumor systems have been used in these tests, and the compounds have been administered on a number of different dosage schedules. In general, all the tests were started by inoculating female mice with the tumor, subcutaneously. After some number of days delay, intraperitoneal administration of the test compound was begun. Each treatment group consisted of 10 mice, and untreated control groups were included in all experiments. At the completion of the treatment period, the tumors of the control and the treated mice were measured and the mass of them calculated from the measurements. The data are reported here as percent inhibition of tumor growth, based on the tumors of the untreated control mice.
The compound of Example 2 was tested against Madison lung carcinoma, giving doses on days 1, 5 and 9 after inoculation and measuring the tumors on day 11.

M-5 ovarian carcinoma [1] = test: Test 2: M-5 ovarian carcinoma in mice, three doses; conditions: for Toxicity (number of animals which exhibited signs of toxicity): group of 10 mice; for Inhibition (percent inhibition of tumor growth): tumors measured day 15
Text: as §1
The compound of Example 2 was tested against M-5 ovarian carcinoma. Three doses were administered on days 5, 10 and 13 after inoculation, and the tumors were measured on day 15.

Lewis lung carcinoma = test: Test 9: Lewis lung carcinoma in mice; conditions: for Toxicity (number of animals which exhibited signs of toxicity): group of 10 mice; for Inhibition (percent inhibition of tumor growth): tumors measured day 11
Text: as §1
The compound of Example 2 was tested against Lewis lung carcinoma, giving doses on days 1, 5 and 9 after inoculation and measuring the tumors on day 11.

M-5 ovarian carcinoma [2] = test: Test 1: M-5 ovarian carcinoma in mice, single dose; conditions: single dose two days after inoculation; for Toxicity (number of animals which exhibited signs of toxicity): group of 10 mice; for Inhibition (percent inhibition of tumor growth): tumors measured 13 days after inoculation
Text: as §1
The tumor in this test was M-5 ovarian carcinoma; the compounds were administered as a single dose, two days after inoculation, and the tumors were measured 13 days after inoculation.

[3] = tested on: C3H mammary adenocarcinoma; test: Test 7: C3H mammary adenocarcinoma in mice; conditions: for Toxicity (number of animals which exhibited signs of toxicity): group of 10 mice; for Inhibition (percent inhibition of tumor growth): tumors measured day 11
Text: as §1
The compound of Example 2 was tested against C3H mammary adenocarcinoma, giving does on days 1, 5 and 9 after inoculation and measuring the tumors on day 11.

colon carcinoma 26 = test: Test 5: colon carcinoma 26 in mice; conditions: for Toxicity (number of animals which exhibited signs of toxicity): group of 10 mice; for Inhibition (percent inhibition of tumor growth): tumors measured day 13
Text: as §1
The compound of Example 2 was tested against colon carcinoma 26, giving doses on days 3, 8 and 11 after inoculation, and measuring the tumors on day 13.

6C3HED lymphosarcoma = test: Test 4: 6C3HED lymphosarcoma in mice; conditions: for Toxicity (number of animals which exhibited signs of toxicity): group of 10 mice; for Inhibition (percent inhibition of tumor growth): tumors measured day 10
Text: as §1
The compound of Example 2 was tested against 6C3HED lymphosarcoma, giving a dose on days 1, 5 and 9 after inoculation, and measuring the tumors on day 10.

[4] = tested on: X-5563 plasma cell myeloma; test: Test 6: X-5563 plasma cell myeloma in mice; conditions: for Toxicity (number of animals which exhibited signs of toxicity): group of 10 mice; for Inhibition (percent inhibition of tumor growth): tumors measured day 11
Text: as §1
The compound of Example 2 was tested against X-5563 plasma cell myeloma, giving doses on days 1, 5 and 9 after inoculation and measuring the tumors on day 11.

M-5 ovarian carcinoma [5] = test: Test 3: M-5 ovarian carcinoma in mice, daily dose; conditions: for Toxicity (number of animals which exhibited signs of toxicity): group of 10 mice; for Inhibition (percent inhibition of tumor growth): tumors measured day 15
Text: as §1
The compound of Example 2 was tested against M-5 ovarian carcinoma, giving a daily dose from day 5 to day 14 after inoculation. The tumors were measured on day 15.

[6] = 1.8 mg/kg intraperitoneal on days 1, 5 and 9 after inoculation
[7] = 3.8 mg/kg intraperitoneal on days 1, 5 and 9 after inoculation
[8] = 7.5 mg/kg intraperitoneal on days 1, 5 and 9 after inoculation
[9] = 15 mg/kg intraperitoneal on days 1, 5 and 9 after inoculation
[10] = 30 mg/kg intraperitoneal on days 1, 5 and 9 after inoculation
[11] = 1.8 mg/kg intraperitoneal on days 5, 10 and 13 after inoculation
[12] = 3.8 mg/kg intraperitoneal on days 5, 10 and 13 after inoculation
[13] = 7.5 mg/kg intraperitoneal on days 5, 10 and 13 after inoculation
[14] = 15 mg/kg intraperitoneal on days 5, 10 and 13 after inoculation
[15] = 30 mg/kg intraperitoneal on days 5, 10 and 13 after inoculation
[16] = 1.8 mg/kg intraperitoneal on days 3, 8 and 11 after inoculation
[17] = 3.8 mg/kg intraperitoneal on days 3, 8 and 11 after inoculation
[18] = 7.5 mg/kg intraperitoneal on days 3, 8 and 11 after inoculation
[19] = 15 mg/kg intraperitoneal on days 3, 8 and 11 after inoculation
[20] = 30 mg/kg intraperitoneal on days 3, 8 and 11 after inoculation
[21] = 0.6 mg/kg intraperitoneal daily from day 5 to day 14 after inoculation
[22] = 1.2 mg/kg intraperitoneal daily from day 5 to day 14 after inoculation
[23] = 2.5 mg/kg intraperitoneal daily from day 5 to day 14 after inoculation
[24] = 5 mg/kg intraperitoneal daily from day 5 to day 14 after inoculation

`CCCCCCCCCCCCCCCC(=O)OC[C@H](COP(=O)(O)OP(=O)(O)OC[C@H]1O[C@@H](n2ccc(N)nc2=O)C(F)(F)[C@@H]1O)OC(=O)CCCCCCCCCCCCCCC` [Example 2] was tested, and the “Toxicity (number of animals which exhibited signs of toxicity)” value (“Toxicity” for short) (Madison lung carcinoma; [6]) was 0/10, the “Inhibition (percent inhibition of tumor growth)” value (Madison lung carcinoma; [6]) was 12% and the “Toxicity” value (Madison lung carcinoma; [7]) was 0/10. The “Inhibition (percent inhibition of tumor growth)” value (Madison lung carcinoma; [7]) was 18%, the “Toxicity” value (Madison lung carcinoma; [8]) was 0/10 and the “Inhibition (percent inhibition of tumor growth)” value (Madison lung carcinoma; [8]) was 33%. The “Toxicity” value (Madison lung carcinoma; [9]) was 0/10, the “Inhibition (percent inhibition of tumor growth)” value (Madison lung carcinoma; [9]) was 68% and the “Toxicity” value (Madison lung carcinoma; [10]) was 4/10. For the same molecule, the “Inhibition (percent inhibition of tumor growth)” value (Madison lung carcinoma; [10]) was 76%, the “Toxicity” value (M-5 ovarian carcinoma [1]; [11]) was 0/10 and the “Inhibition (percent inhibition of tumor growth)” value (M-5 ovarian carcinoma [1]; [11]) was 22%. For the same molecule, the “Toxicity” value (M-5 ovarian carcinoma [1]; [12]) was 0/10, the “Inhibition (percent inhibition of tumor growth)” value (M-5 ovarian carcinoma [1]; [12]) was 55% and the “Toxicity” value (M-5 ovarian carcinoma [1]; [13]) was 0/10. The “Inhibition (percent inhibition of tumor growth)” value (M-5 ovarian carcinoma [1]; [13]) was 61%, the “Toxicity” value (M-5 ovarian carcinoma [1]; [14]) was 0/10 and the “Inhibition (percent inhibition of tumor growth)” value (M-5 ovarian carcinoma [1]; [14]) was 92%. The “Toxicity” value (M-5 ovarian carcinoma [1]; [15]) was 2/10, the “Inhibition (percent inhibition of tumor growth)” value (M-5 ovarian carcinoma [1]; [15]) was 99% and the “Toxicity” value (Lewis lung carcinoma; [6]) was 0/10. The “Inhibition (percent inhibition of tumor growth)” value (Lewis lung carcinoma; [6]) was 6%, the “Toxicity” value (Lewis lung carcinoma; [7]) was 0/10 and the “Inhibition (percent inhibition of tumor growth)” value (Lewis lung carcinoma; [7]) was 0%. For the same molecule, the “Toxicity” value (Lewis lung carcinoma; [8]) was 0/10, the “Inhibition (percent inhibition of tumor growth)” value (Lewis lung carcinoma; [8]) was 0% and the “Toxicity” value (Lewis lung carcinoma; [9]) was 0/10. For the same molecule, the “Inhibition (percent inhibition of tumor growth)” value (Lewis lung carcinoma; [9]) was 0%, the “Toxicity” value (Lewis lung carcinoma; [10]) was 4/10 and the “Inhibition (percent inhibition of tumor growth)” value (Lewis lung carcinoma; [10]) was 41%. The “Toxicity” value (M-5 ovarian carcinoma [2]; 25 mg/kg intraperitoneal) was 0/10, the “Inhibition (percent inhibition of tumor growth)” value (M-5 ovarian carcinoma [2]; 25 mg/kg intraperitoneal) was 72% and the “Toxicity” value (M-5 ovarian carcinoma [2]; 50 mg/kg intraperitoneal) was 4/10. The “Inhibition (percent inhibition of tumor growth)” value (M-5 ovarian carcinoma [2]; 50 mg/kg intraperitoneal) was 87%, the “Toxicity” value [3, 6] was 0/10 and the “Inhibition (percent inhibition of tumor growth)” value [3, 6] was 0%. The “Toxicity” value [3, 7] was 0/10, the “Inhibition (percent inhibition of tumor growth)” value [3, 7] was 0% and the “Toxicity” value [3, 8] was 0/10. The “Inhibition (percent inhibition of tumor growth)” value [3, 8] was 22%, the “Toxicity” value [3, 9] was 0/10 and the “Inhibition (percent inhibition of tumor growth)” value [3, 9] was 60%. For the same molecule, the “Toxicity” value [3, 10] was 6/10, the “Inhibition (percent inhibition of tumor growth)” value [3, 10] was 100% and the “Toxicity” value (colon carcinoma 26; [16]) was 0/10. For the same molecule, the “Inhibition (percent inhibition of tumor growth)” value (colon carcinoma 26; [16]) was 0%, the “Toxicity” value (colon carcinoma 26; [17]) was 0/10 and the “Inhibition (percent inhibition of tumor growth)” value (colon carcinoma 26; [17]) was 21%. The “Toxicity” value (colon carcinoma 26; [18]) was 0/10, the “Inhibition (percent inhibition of tumor growth)” value (colon carcinoma 26; [18]) was 28% and the “Toxicity” value (colon carcinoma 26; [19]) was 0/10. The “Inhibition (percent inhibition of tumor growth)” value (colon carcinoma 26; [19]) was 66%, the “Toxicity” value (colon carcinoma 26; [20]) was 8/10 and the “Inhibition (percent inhibition of tumor growth)” value (colon carcinoma 26; [20]) was 89%. For the same molecule, the “Toxicity” value (6C3HED lymphosarcoma; [6]) was 0/10, the “Inhibition (percent inhibition of tumor growth)” value (6C3HED lymphosarcoma; [6]) was 21% and the “Toxicity” value (6C3HED lymphosarcoma; [7]) was 0/10. For the same molecule, the “Inhibition (percent inhibition of tumor growth)” value (6C3HED lymphosarcoma; [7]) was 32%, the “Toxicity” value (6C3HED lymphosarcoma; [8]) was 0/10 and the “Inhibition (percent inhibition of tumor growth)” value (6C3HED lymphosarcoma; [8]) was 47%. For the same molecule, the “Toxicity” value (6C3HED lymphosarcoma; [9]) was 0/10, the “Inhibition (percent inhibition of tumor growth)” value (6C3HED lymphosarcoma; [9]) was 60% and the “Toxicity” value (6C3HED lymphosarcoma; [10]) was 7/10. For the same molecule, the “Inhibition (percent inhibition of tumor growth)” value (6C3HED lymphosarcoma; [10]) was 98%, the “Toxicity” value [4, 6] was 0/10 and the “Inhibition (percent inhibition of tumor growth)” value [4, 6] was 0%. The “Toxicity” value [4, 7] was 0/10, the “Inhibition (percent inhibition of tumor growth)” value [4, 7] was 2% and the “Toxicity” value [4, 8] was 0/10. The “Inhibition (percent inhibition of tumor growth)” value [4, 8] was 68%, the “Toxicity” value [4, 9] was 1/10 and the “Inhibition (percent inhibition of tumor growth)” value [4, 9] was 84%. The “Toxicity” value [4, 10] was 9/10, the “Inhibition (percent inhibition of tumor growth)” value [4, 10] was 100% and the “Toxicity” value (M-5 ovarian carcinoma [5]; [21]) was 0/10. For the same molecule, the “Inhibition (percent inhibition of tumor growth)” value (M-5 ovarian carcinoma [5]; [21]) was 42%, the “Toxicity” value (M-5 ovarian carcinoma [5]; [22]) was 0/10 and the “Inhibition (percent inhibition of tumor growth)” value (M-5 ovarian carcinoma [5]; [22]) was 58%. For the same molecule, the “Toxicity” value (M-5 ovarian carcinoma [5]; [23]) was 0/10, the “Inhibition (percent inhibition of tumor growth)” value (M-5 ovarian carcinoma [5]; [23]) was 69% and the “Toxicity” value (M-5 ovarian carcinoma [5]; [24]) was 0/10. For the same molecule, the “Inhibition (percent inhibition of tumor growth)” value (M-5 ovarian carcinoma [5]; [24]) was 100% and the “Toxicity” value (M-5 ovarian carcinoma [5]; 10 mg/kg intraperitoneal daily from day 5 to day 14 after inoculation) was 10/10.
